Earlier results in US11608326B2, “Synthetic receptors for ionophoric compounds” (Universiteit Gent, priority 2018, dated 2023).

What was measured:
[1] = system: human leukemia cells; conditions: 3 μM, overnight incubation
[2] = system: human neural (Paju) cells

## beauvericin
[1]
  drop of survival rate: 80%
[2]
  concentration sufficient to cause depolarization: low μM concentrations
